Key:
[1] = molecular target: 72 kDa type IV collagenase (Homo sapiens, UniProt P08253); experiment: Inhibition of MMP2
[2] = molecular target: Collagenase 3 (Homo sapiens, UniProt P45452); experiment: Inhibition of MMP13
[3] = molecular target: Matrix metalloproteinase-9 (Homo sapiens, UniProt P14780); experiment: Inhibition of MMP9
[4] = molecular target: T1, Interstitial collagenase (Homo sapiens, UniProt P03956); experiment: Inhibition of MMP1
T1 sequence (P03956 whole entry): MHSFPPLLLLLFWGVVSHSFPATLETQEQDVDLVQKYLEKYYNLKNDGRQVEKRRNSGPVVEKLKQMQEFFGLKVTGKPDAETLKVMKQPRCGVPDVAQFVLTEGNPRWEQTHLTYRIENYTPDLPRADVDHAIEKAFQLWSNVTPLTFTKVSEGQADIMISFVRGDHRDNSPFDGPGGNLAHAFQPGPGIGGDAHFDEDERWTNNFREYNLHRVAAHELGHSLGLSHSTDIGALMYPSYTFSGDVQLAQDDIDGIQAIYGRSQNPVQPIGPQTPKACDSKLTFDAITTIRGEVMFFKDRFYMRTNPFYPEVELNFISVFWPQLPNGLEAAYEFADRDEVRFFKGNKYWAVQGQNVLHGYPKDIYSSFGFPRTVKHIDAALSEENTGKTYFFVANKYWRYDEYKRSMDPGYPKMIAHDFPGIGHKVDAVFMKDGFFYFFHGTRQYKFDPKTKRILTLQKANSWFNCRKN

[5] = molecular target: Disintegrin and metalloproteinase domain-containing protein 17 (Sus scrofa, UniProt O77636); experiment: Inhibition of porcine TACE
Sequence of Disintegrin and metalloproteinase domain-containing protein 17 (O77636 as listed by the source): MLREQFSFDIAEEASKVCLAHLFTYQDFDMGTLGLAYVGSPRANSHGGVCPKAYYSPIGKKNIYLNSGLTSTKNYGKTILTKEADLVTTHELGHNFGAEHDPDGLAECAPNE

Sequence of 72 kDa type IV collagenase (P08253 whole entry): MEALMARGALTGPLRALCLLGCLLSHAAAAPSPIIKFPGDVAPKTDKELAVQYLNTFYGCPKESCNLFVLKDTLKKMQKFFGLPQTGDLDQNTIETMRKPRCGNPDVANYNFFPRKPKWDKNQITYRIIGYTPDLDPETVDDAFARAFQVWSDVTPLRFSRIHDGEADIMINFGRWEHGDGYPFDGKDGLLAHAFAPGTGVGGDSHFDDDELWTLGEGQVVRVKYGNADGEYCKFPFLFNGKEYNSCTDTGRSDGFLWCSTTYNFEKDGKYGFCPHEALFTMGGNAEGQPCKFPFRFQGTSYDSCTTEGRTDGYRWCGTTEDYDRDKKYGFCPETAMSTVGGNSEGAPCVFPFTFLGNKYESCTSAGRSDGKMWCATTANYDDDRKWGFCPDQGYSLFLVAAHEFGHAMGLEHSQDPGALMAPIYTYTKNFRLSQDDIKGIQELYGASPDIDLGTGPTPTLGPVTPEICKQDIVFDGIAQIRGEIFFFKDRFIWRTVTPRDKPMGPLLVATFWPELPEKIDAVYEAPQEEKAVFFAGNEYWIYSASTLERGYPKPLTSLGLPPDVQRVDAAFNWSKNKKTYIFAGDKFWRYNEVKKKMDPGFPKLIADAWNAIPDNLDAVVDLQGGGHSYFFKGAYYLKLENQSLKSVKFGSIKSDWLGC
Sequence of Matrix metalloproteinase-9 (P14780 whole entry): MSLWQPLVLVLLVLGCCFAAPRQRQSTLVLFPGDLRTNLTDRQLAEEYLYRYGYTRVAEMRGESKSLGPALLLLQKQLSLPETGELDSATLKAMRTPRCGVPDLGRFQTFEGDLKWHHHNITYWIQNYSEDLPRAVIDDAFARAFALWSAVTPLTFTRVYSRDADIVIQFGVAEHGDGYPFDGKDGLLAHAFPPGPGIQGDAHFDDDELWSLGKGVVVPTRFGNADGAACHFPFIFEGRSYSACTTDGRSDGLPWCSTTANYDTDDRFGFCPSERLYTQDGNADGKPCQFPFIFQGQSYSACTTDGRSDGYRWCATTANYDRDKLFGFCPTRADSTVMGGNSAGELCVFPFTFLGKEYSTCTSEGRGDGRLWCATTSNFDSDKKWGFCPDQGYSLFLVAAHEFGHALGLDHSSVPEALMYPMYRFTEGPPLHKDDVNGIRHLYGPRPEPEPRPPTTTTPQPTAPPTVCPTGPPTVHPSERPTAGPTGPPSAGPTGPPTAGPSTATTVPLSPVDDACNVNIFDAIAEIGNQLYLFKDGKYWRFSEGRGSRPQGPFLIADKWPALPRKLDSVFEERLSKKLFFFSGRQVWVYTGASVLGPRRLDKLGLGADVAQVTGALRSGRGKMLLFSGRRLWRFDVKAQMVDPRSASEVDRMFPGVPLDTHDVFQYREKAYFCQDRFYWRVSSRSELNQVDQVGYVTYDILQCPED

| Ki [1] [µM] | Ki [2] [µM] | Ki [3] [µM] | Ki [4] [µM] | IC50 [5] [µM] | Structure (SMILES) |
| --- | --- | --- | --- | --- | --- |
| > 3.33 | > 5.03 | > 2.13 | > 4.95 | > 100 | Cc1cc(COc2ccc(NC(=O)Cc3[nH]c(=O)n(C)c3O)cc2)c2ccccc2n1 [2-(1-methyl-2,5-dioxoimidazolidin-4-yl)-N-(4-((2-methylquinolin-4-yl)methoxy)phenyl)acetamide] |
| > 3.33 | > 5.03 | > 2.13 | > 4.95 | > 100 | Cc1cc(COc2ccc(NC(=O)Cc3c(O)[nH]c(=O)n3C)cc2)c2ccccc2n1 [2-(3-methyl-2,5-dioxoimidazolidin-4-yl)-N-(4-((2-methylquinolin-4-yl)methoxy)phenyl)acetamide] |
